Here are results for 2 compounds from patent publication US6900019B1, “In-situ cell extraction and assay method” (Amersham Biosciences UK Limited, priority 1997, dated 2005).

Test [1] relates to binding protein prepared from bovine adrenal cortex. The test can be described thus: Radioreceptor binding assay for D-myo-inositol 1,4,5-trisphosphate (IP3) with lysis reagent and sequestrant. The note with it: 0.5% w/v DTAB in standards. As to the method: Bovine adrenal glands were removed from animals and stored at −20° C. before preparing the binding protein. The cortex was dissected from the adrenal glands, homogenised in NaHCO3 (20 mM) with dithiothreitol (1 mM), and the homogenate centrifuged at 5000 g for 15 minutes. The supernatant was centrifuged at 35000 g for 20 minutes, the resulting pellet resuspended in the homogenisation buffer and centrifuged again at 35000 g for 20 minutes. The final pellet was resuspended in homogenisaton buffer at a protein concentration of between 20-40 mg/ml.
For the assay, aliquots (100 μl) of the bovine adrenal cortex microsome preparation were incubated in 100 μl of 0.1M Tris buffer (pH9.0), containing 4 mM EDTA and 4 mg/ml bovine serum albumin. Incubations were carried out for 15 minutes in a final volume of 0.4 ml with [^3H] inositol 1,4,5-trisphosphate (100 μl; 6000 cpm) sample or standard (100 μl; 0.19-25 pmol inositol 1,4,5-trisphosphate/assay tube). Non-specific binding was determined in the presence of 1 nmol inositol 1,4,5-trisphosphate/tube. Incubations were terminated by centrifugation (12000 g) (10 minutes at 4° C.) and removal of the supernatant by gentle decantation. Particulate bound radioactivity was analysed, after suspension in 0.15M sodium hydroxide followed by neutralisation with 10% acetic acid, by liquid scintillation counting […]

Test [2] has as its target T1, Interleukin-6 / anti-IL-6 antibody binding (Homo sapiens, UniProt P05231).
T1 construct: purchased Amersham RPN 2754
In words: IL-6 ELISA standard curves with lysis reagent and sequestrant. The note with it: 1% DTAB in standards. How it is done: Working standards (10.24400 pg/ml IL-6) were prepared in polypropylene tubes using assay buffer containing 1% (w/v) DTAB. The biotinylated antibody was prepared in buffer containing 3% (w/v) alpha-cyclodextrin. 50 μl of biotinylated antibody (containing cyclodextrin) was added to the anti-IL-6 coated plate. 50 μl of working standard and cell lysate was pipetted into separate wells of the anti-IL-6 coated plate. Non-specific binding was measured in the absence of IL-6 (zero IL-6 standard). The order of addition of biotinylated antibody and samples/standards is not critical to the procedure. […] The optical density was determined with a microtitre plate spectrophotometer set at 450 nm. Interleukin-6 levels were determined using log/linear analysis with reference to a standard curve. […]
(§1) Interleukin-6 standards (10.24-400 pg/ml) were prepared in standard diluent either in the presence (□) or absence (●) of lysis reagent (1% w/v DTAB). […] The plate was incubated for 2 hours at room temperature, and the optical density measured as described under the methods section.
as §1
Background: ELISA stands for enzyme-linked immunosorbent assay.

T1 sequence (P05231 30-212): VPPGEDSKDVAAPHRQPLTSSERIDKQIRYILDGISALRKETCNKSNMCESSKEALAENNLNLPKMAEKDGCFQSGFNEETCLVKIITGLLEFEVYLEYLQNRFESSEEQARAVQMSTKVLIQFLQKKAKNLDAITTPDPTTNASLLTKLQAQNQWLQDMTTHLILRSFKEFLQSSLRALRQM

As to `OC[C@H]1O[C@@H]2O[C@H]3[C@H](O)[C@@H](O)[C@@H](O[C@H]4[C@H](O)[C@@H](O)[C@@H](O[C@H]5[C@H](O)[C@@H](O)[C@@H](O[C@H]6[C@H](O)[C@@H](O)[C@@H](O[C@H]7[C@H](O)[C@@H](O)[C@@H](O[C@H]1[C@H](O)[C@H]2O)O[C@@H]7CO)O[C@@H]6CO)O[C@@H]5CO)O[C@@H]4CO)O[C@@H]3CO` [CD, alpha-cyclodextrin], the “binding of [3H]IP3 to the receptor preparation” value in test [1] (alpha-cyclodextrin 2% final w/v in tracer and adrenal cortex preparation) is given as “Binding was restored”. Also, the “antibody binding in the IL-6 ELISA” value in test [2] (3% (w/v) alpha-cyclodextrin in biotinylated antibody) is reported as “Binding was restored”.

Consider `CCCCCCCCCCCC[N+](C)(C)C.[Br-]` [DTAB, dodecyl trimethyl ammonium bromide], for which the “binding of [3H]IP3 to the receptor preparation” value in test [1] (no sequestrant) is given as “total inhibition of binding”. In addition, in test [2] (zero cyclodextrin), the “antibody binding in the IL-6 ELISA” value is on record as “inhibition of antibody binding”.
